Values of other authors, collected in PMC5143208 (American journal of transplantation : official journal of …, 2016).

Tested on: CCR2
Conditions: in vitro

d(LGTFLKC) [ECL1i]
binding to CCR2: selectively bind CCR2 in a non-competitive way
